The values below come from publication PMC10084252, “PAF‐induced inflammatory and immuno‐allergic ophthalmic diseases and their mitigation with PAF receptor antagonists: Cell and nuclear effects” (Biofactors (Oxford, England), 2022).

On the set-up of test [1]: method as in PMID 20454616, PMID 21804199, PMID 23355413, PMID 28341636. The note with it: cited from earlier work.
Test [2] concerns the target PAF receptor (Oryctolagus cuniculus, UniProt G1TEI7). Put plainly: [3H]‐PAF receptor binding to rabbit platelet membranes. Conditions: read-out: [3H]‐PAF receptor binding inhibition constant (Ki, nM; Mean ± SEM). An excerpt:
(§1) FIGURE 5 Pharmacological profile of PAR receptor binding to platelet membranes. Figure 5A depicts the concentration‐dependent inhibition by unlabeled PAF receptor antagonists of different affinities for [^3H]‐PAF binding to rabbit platelet membranes in vitro. Figure 5B illustrates the correlation between the pharmacological profile of PAF receptor antagonists competing for [^3H]‐PAF binding to rabbit and human platelet membranes.

Test [3] deals with T1, PAF receptor (Homo sapiens, UniProt P25105).
T1 construct: from tissue; host or cells: human platelet membranes
Put plainly: [3H]‐PAF binding to human platelet membranes. An excerpt: FIGURE 5 Pharmacological profile of PAR receptor binding to platelet membranes.

For test [4], the system named is animals. Also on record: method as in PMID 7859817. The note with it: intravitreally injected PAF, pretreatment; cited from earlier work.
Test [5] has as its system patients. Also on record: method as in PMID 31816871. Conditions: cited from earlier work.
The subject of test [6] is naïve mice. Also on record: method as in PMID 15326102, PMID 20961214, PMID 24754407, PMID 2891830, PMID 8529415. Conditions: cited from earlier work.
Test [7] deals with rod outer segments. Also on record: method as in PMID 1427144. Conditions: lithium‐ and light‐induced retinal degenerations animal models; cited from earlier work.
Test [8] has as its system human conjunctival epithelial cells (HCECs). The arrangement: method as in PMID 19513187. Conditions: cited from earlier work.
The test system of test [9] is retinal capillary endothelial cells. The arrangement: method as in PMID 12356842. The note with it: rat pups exposed to high levels of oxygen (model of ROP), prior treatment; cited from earlier work.
The subject of test [10] is human conjunctival epithelial cells (HCECs). The arrangement: method as in PMID 19513187. Conditions: cited from earlier work. The source holds these as a separate data set.
Test [11] deals with T1, PAF receptor. Put plainly: [3H]‐WEB‐2086 binding to human platelet membranes. Conditions: read-out: [3H]‐WEB‐2086 binding inhibition constant (Ki, nM; Mean ± SEM).
In test [12] the test system is human conjunctival epithelial cells (HCECs). The arrangement: method as in PMID 9261768. Conditions: cited from earlier work; for EC50: read-out: EC50 for increase of [3H]‐IPs.
Test [13] relates to photoreceptors. The arrangement: method as in PMID 15979612. The note with it: retinal ischemia / oxidative stress; cited from earlier work.
The test system of test [14] is human chronic diseases. The arrangement: method as in PMID 31816871. Conditions: ulcerative colitis, myocardiac infarction, organ failure associated with pancreatitis, cognitive decline after bypass surgery, psoriasis; cited from earlier work.
In test [15] the test system is HCEPI/CEPI‐17‐CL4 cells. Also on record: method as in PMID 9856766, PMID 9559896, PMID 9863665, PMID 10235542, PMID 20187806. Conditions: cited from earlier work.
On the set-up of test [16]: method as in PMID 31816871. The note with it: cited from earlier work.
Test [17] concerns patients suffering from rhinitis. Also on record: method as in PMID 23459334, PMID 31470575. Conditions: oral, 4‐week period of dosing; cited from earlier work.
For test [18], the system named is HIS and PAF receptors. The arrangement: method as in PMID 1793070. Conditions: cited from earlier work.
For test [19], the system named is asthma patients. Also on record: method as in PMID 31816871. Conditions: cited from earlier work.
Details of test [20]: method as in PMID 31816871. Conditions: cited from earlier work. The source holds these as a separate data set.
Test [21] relates to rats. The arrangement: method as in PMID 9845270. The note with it: streptozotocin‐induced diabetes in rats; cited from earlier work.
On the set-up of test [22]: method as in PMID 31816871. Conditions: cited from earlier work. This is another data set of the same source.
In test [23] the test system is laser‐induced choroidal neovascularization (CNV) in mice. The arrangement: method as in PMID 23826375. The note with it: cited from earlier work.
Test [24] concerns patients. The arrangement: method as in PMID 31816871. Conditions: cited from earlier work. The source holds these as a separate data set.
The test system of test [25] is PAF receptors on rabbit and human platelets. Put plainly: PAF receptor binding on platelets. The note with it: Figure 5.
Source text: as §1

Test [26] concerns the target PAF receptors in the bovine and rabbit cornea. Also on record: method as in PMID 10067986. The note with it: cited from earlier work.
Setting [27] is: human platelet membranes, read-out: [3H]‐PAF receptor binding inhibition constant (Ki, nM; Mean ± SEM).

Like-named read-outs stand apart in the source and are kept apart here. Where no end group is shown, it is not given here.

PAF receptor (Oryctolagus cuniculus, UniProt G1TEI7), sequence (G1TEI7 1-342): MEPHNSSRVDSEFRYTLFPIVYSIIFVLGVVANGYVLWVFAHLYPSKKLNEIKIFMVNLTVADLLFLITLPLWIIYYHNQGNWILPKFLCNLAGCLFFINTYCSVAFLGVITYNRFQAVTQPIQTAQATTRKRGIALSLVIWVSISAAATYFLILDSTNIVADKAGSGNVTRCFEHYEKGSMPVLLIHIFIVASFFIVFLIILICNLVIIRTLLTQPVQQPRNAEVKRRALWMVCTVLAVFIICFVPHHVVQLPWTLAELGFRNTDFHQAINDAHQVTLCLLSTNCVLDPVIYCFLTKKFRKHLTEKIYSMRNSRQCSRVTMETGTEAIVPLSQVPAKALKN
T1 sequence (P25105 whole entry): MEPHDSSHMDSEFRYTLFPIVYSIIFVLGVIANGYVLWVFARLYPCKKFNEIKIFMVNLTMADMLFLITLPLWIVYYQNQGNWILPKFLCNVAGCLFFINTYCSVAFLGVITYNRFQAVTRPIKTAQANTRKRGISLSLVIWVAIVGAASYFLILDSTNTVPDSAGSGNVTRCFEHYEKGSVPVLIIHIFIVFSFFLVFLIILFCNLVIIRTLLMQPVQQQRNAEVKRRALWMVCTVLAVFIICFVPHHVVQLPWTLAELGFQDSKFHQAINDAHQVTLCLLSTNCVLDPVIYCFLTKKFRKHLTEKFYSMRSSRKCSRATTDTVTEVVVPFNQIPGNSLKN

Take `C#Cc1cccc2c1c(C(=O)c1ccc(Cn3c(C)nc4cnccc43)c(F)c1)cn2C(=O)N(C)C` [ABT‐491]: in test [1], the “Pain induced by ATP‐triggered PAF release” value is recorded as “blocked”.
Consider `CN(C)C(=O)n1cc(C(=O)c2ccn3c2CS[C@@H]3c2cccnc2)c2ccc(-c3ccc(F)cc3)cc21` [A‐85783], for which the Ki – broadly, the dissociation constant of the complex between target and ligand, obtained from inhibition or displacement – in [2] is 6.9 ± 1 nM.
In test [3], `C#Cc1cccc2c1c(C(=O)c1ccc(Cn3c(C)nc4cnccc43)c(F)c1)cn2C(=O)N(C)C` [A‐137491] showed an inhibition constant Ki of 3.9 ± 0.5 nM.
In the case of `COc1ccc(NC(=S)N2CCc3c(sc4c3C(c3ccccc3Cl)=NCc3nnc(C)n3-4)C2)cc1` [BN‐50730 (Rocipafant) LAU‐8080, Rocipafant], the inhibitory constant (Ki) in test [2] amounted to 44.8 ± 7.2 nM.
For the compound `COc1ccc(SCC(=S)N2CCc3c(sc4c3C(c3ccccc3Cl)=NCc3nnc(C)n3-4)C2)cc1OC` [BN‐50739], the inhibitory constant (Ki) in [2] was found to be 28.6 ± 8.4 nM; in test [3] (setting [27]), 53.4 ± 1.9 nM.
Consider `CC1C(=O)OC2C(O)C34C5CC(C(C)(C)C)C36C(OC(=O)C6O)OC4(C(=O)O5)C12O` (stereo not drawn) [BN‐52021(Ginkolide B), Ginkgolide B], for which the “PAF‐induced disruption of choroidal endothelial cell layer and polymorphonuclear leukocyte infiltration” value in [4] was “mostly abolished”. For the same compound, the “PAF levels in patients” value in test [5] is reported as “reduction”. Also, the “PAF‐induced ocular surface neovascularization” value in test [6] is reported as “inhibited”. The “Damage to rod outer segments” value in [7] is reported as “effectively suppressed”.
As to `CCCCCCCCCCCCCCCCCCNC(=O)OCC(COP(=O)([O-])OCC[n+]1ccsc1)OC` (stereo not drawn) [CV‐3988], the “Effect on PAF‐induced synthesis and secretion of IL‐6, IL‐8 and GM‐CSF” value in [8] was “curtailed”. In addition, the “Loss of retinal capillary endothelial cells” value in test [9] is listed as “reduced”. For the same compound, the “Antagonism of PAF‐induced [Ca2+]i mobilization” value in test [10] is reported as “antagonized”. Moreover, the “PAF‐induced ocular surface neovascularization” value in test [6] is recorded as “inhibited”. Also, the Ki in test [2] came out at 2900 ± 240 nM; in test [3] (setting [27]), 3090 ± 889 nM; in test [11], 3780 ± 759 nM.
As for `Cc1nnc2n1-c1sc3c(c1C(c1ccccc1Cl)=N[C@H]2C)CCN(C(=O)C1CC1)C3` [E‐6123], the Ki in test [2] came out at 9.3 ± 0.3 nM.
Consider `NCCc1c[nH]cn1` [HIS, histamine], for which the EC50 (usually the concentration giving half of the maximal effect) in test [12] is 3100 nM.
For the compound `CC1=C(C(=O)OCCOc2ccc(Cl)c(Cl)c2)C(C)C(C(=O)OC(CN2CCOCC2)CN2CCOCC2)=C(C)N1` (stereo not drawn) [LAU0901], the “Protection of photoreceptors and their terminals” value in test [13] is “efficaciously protected”.
In the case of `CCCCC/C=C\C\C=C/C=C/C=C/[C@@H](SC[C@H](NC(=O)CC[C@H](N)C(=O)O)C(=O)NCC(=O)O)[C@@H](O)CCCC(=O)O` [LTC4], the EC50 in test [12] is 300 nM.
Regarding `CCOC(=O)[C@H](CC(C)C)N(C)S(=O)(=O)c1ccc(Cn2c(C)nc3cnccc32)cc1` [Lexipafant], the “Efficacy in multiple human chronic diseases” value in test [14] is given as “lack of efficacy”.
Take `CCOC(=O)C1=C(c2ccc(-n3c(C)nc4cnccc43)cc2)NC(C)=C(C(=O)Nc2ccccn2)[C@H]1c1ccccc1Cl` [Modipafant]: in [14], the “Efficacy in multiple human chronic diseases” value is given as “lack of efficacy”.
For `CCOC[C@H](CC(C)C)N(C)S(=O)(=O)c1ccc(Cn2c(C)nc3cnccc32)cc1` [Nupafant], the Ki in [2] came to 1.7 ± 0.6 nM.
For the compound `CCCCCCCCOc1ccccc1C(=O)Nc1ccc(C(=O)OCC[N+](C)(CC)CC)cc1` [Octylonium], in test [3] (setting [27]), the Ki came to 4335 ± 17.8 nM.
As to `COC(=O)C1=C(C)NC(C)=C(C(=O)OCCSc2ccccc2)C1C` (stereo not drawn) [PCA‐4248], in test [8], the “Effect on PAF‐induced synthesis and secretion of IL‐6, IL‐8 and GM‐CSF” value is “curtailed”. The “Effect on PAF‐induced IPs production” value in [15] is given as “blocked”. The “Antagonism of PAF‐induced [Ca2+]i mobilization” value in test [10] was “antagonized”. Moreover, the Ki in test [3] (setting [27]) was found to be 634 nM.
`CCCCC[C@H](O)/C=C/[C@@H]1[C@@H](C/C=C\CCCC(=O)O)[C@@H](O)C[C@H]1O` [PGF2α]: the “Stimulation of [3H]‐IPs (in words)” value in [12] is “inactive”.
Take `CCCCCCCCCCCCCCCCCCNC(=O)OC[C@@H](COCCCC[n+]1ccsc1)OC(=O)OC` [RO‐19‐3704]: the inhibition constant Ki in test [2] worked out at 201 ± 22.5 nM.
In the case of `Cc1cncc(CN2CCC(=C3c4ccc(Cl)cc4CCc4cccnc43)CC2)c1` [SCH‐37370 (Rupatadine), Rupatadine], the “Effects in chronic idiopathic urticaria and allergic rhino‐conjunctivitis” value in test [16] is given as “beneficial effects”. Moreover, in test [17], the “Nasal discharge, sneezing and nasal itching” value is reported as “significantly reduced”; the Ocular itching result was “significantly reduced”. For the same compound, the “Affinities and potencies at both HIS and PAF receptors (in words)” value in [18] is “micromolar”.
Turning to `C[C@@H]1S[C@H](c2cccnc2)N(C)C1=O` [SM‐10661], the inhibitory constant (Ki) in [2] turned out to be 7490 ± 875 nM; in test [3] (setting [27]), 22800 nM; in [11], 9850 ± 1350 nM.
As to `CC(C)c1cc(C(C)C)c(-c2csc(N(CCN(C)C)Cc3cccnc3)n2)c(C(C)C)c1` [SR27417A], the “Efficacy in asthma patients” value in test [19] was “modest efficacy”. For the same compound, in [14], the “Efficacy in multiple human chronic diseases” value was “lack of efficacy”.
As to `CCC[n+]1cc(Br)cc(C(=O)N(CCC(=O)NCCOC(=O)N2CCc3ccccc3C2)c2ccccc2)c1.O=[N+]([O-])[O-]` [TCV‐309], the Ki stood at 5.5 ± 0.2 nM in test [2] and 9.4 ± 3.1 nM in test [3] (setting [27]). Also, the “Organ dysfunction and morbidity linked to septic shock” value in test [20] was “reduction”.
For the compound `Cc1nnc2n1-c1sc(CCC(=O)N3CCOCC3)cc1C(c1ccccc1Cl)=NC2` [WEB‐2086], in [21], the “Retinal blood vessel density” value was “helped preserve”. In addition, the “Erythema induced by UV‐light” value in test [22] was “reduction”. In addition, in test [23], the “Choroidal neovascularization and subretinal fibrosis induced by PAF” value is “inhibited”. In addition, the “Fluoresceine leakage (retinal vascular leakage) after laser‐induced CNV” value in test [23] (mice, prior treatment, intraperitoneal and intravitreal administration) was “blockade”.
Turning to `CC(C)(CCN1CCN(C(=O)C2CSC(c3cccnc3)N2)CC1)c1ccccc1` (stereo not drawn) [YM‐264], the Ki in test [2] came to 5.1 ± 0.6 nM; in [3] (setting [27]), 7.3 ± 1.8 nM.
As for `Cc1nnc2n1-c1sc(CCc3ccc(CC(C)C)cc3)cc1C(c1ccccc1Cl)=NC2C` (stereo not drawn) [Y‐24180], the Bronchial hyperresponsiveness result in test [24] is on record as “improvement”.
Turning to `Clc1ccc2c(c1)CCc1cccnc1C2=C1CCNCC1` [des‐loratadine], in test [17], the “Nasal discharge, sneezing and nasal itching” value is “significantly reduced”; the Ocular itching entry is recorded as “significantly reduced”.
Take Hexanolamine: the Ki in test [2] was found to be 164 ± 15.4 nM.
With “bradykinin (RPPGFSPFR; Bradykinin; UniProt P01042 381-389, looked up) [BK, mast cell mediator]”, the EC50 in test [12] was 0.83 nM.
For the compound “endothelin (CSCSSLMDKECVYFCHLDIIW; ends and bridges not checked; cysteine pairing not given here; UniProt P05305 53-73, looked up)”, the “Stimulation of [3H]‐IPs (in words)” value in test [12] was “inactive”.
Regarding platelet‐activating factor [PAF], the equilibrium dissociation constant (Kd) (as a rule, the equilibrium constant for the complex coming apart) was 0.5 nM in [25] and 0.8 to 4.3 nM in test [26]. The EC50 is 0.81 nM in test [10] (read-out: EC50 for [Ca2+]i mobilization) and 4.5 nM in test [12]. Besides, the results for the Ki in test [2], in [3] (setting [27]) and in test [11] were 3.7 ± 0.4 nM, 3.1 ± 0.6 nM and 26.5 ± 2 nM, respectively.
On to “substance P (RPKPQQFFGLM; ends and bridges not checked; UniProt P20366 58-68, looked up)”, for which, in test [12], the “Stimulation of [3H]‐IPs (in words)” value is “inactive”.
